Substitutions are numbered along the chain they refer to. Where two headings read alike, the source gives them in different places.

Experiment [1] has as its target T1, androgen receptor (Homo sapiens, UniProt P10275).
T1 sequence (P10275 1-920 Q868H): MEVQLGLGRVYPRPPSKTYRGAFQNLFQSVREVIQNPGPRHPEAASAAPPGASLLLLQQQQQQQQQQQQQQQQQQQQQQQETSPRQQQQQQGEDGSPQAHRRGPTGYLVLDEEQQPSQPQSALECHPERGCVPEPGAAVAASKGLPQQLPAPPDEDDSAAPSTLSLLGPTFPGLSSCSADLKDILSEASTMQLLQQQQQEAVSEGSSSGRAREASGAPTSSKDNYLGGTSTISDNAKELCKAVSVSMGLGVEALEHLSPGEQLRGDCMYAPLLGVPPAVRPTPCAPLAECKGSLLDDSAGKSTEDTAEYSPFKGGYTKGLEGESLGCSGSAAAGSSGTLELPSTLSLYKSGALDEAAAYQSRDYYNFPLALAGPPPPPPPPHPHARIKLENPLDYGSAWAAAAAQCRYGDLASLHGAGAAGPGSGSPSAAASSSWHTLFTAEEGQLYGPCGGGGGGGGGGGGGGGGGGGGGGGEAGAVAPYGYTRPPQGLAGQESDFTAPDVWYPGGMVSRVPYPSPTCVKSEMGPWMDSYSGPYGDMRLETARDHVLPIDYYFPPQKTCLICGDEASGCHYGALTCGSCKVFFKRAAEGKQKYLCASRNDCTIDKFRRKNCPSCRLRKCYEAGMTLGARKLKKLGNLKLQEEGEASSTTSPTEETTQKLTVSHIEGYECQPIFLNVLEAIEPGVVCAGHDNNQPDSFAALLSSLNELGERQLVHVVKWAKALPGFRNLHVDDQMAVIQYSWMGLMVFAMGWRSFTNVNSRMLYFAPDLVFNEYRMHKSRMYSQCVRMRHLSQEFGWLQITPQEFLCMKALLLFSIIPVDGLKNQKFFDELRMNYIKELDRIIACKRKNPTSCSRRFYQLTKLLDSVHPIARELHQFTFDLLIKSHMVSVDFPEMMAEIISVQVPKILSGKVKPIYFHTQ
The experiment is described as follows: AR antagonist cell assay (MDA-MB453-MMTV clone 54-19 luciferase reporter, 100 pM DHT). The format is cell-based. As for the experimental part: The compounds ability to antagonize the effects of androgen on the androgen receptor were determined in a whole cell assay as described immediately below.
Experimental Procedure for AR Antagonist Cell Assay
This cell line is a stable transfected cell line with MDA-MB453 cell background (a human breast tumor cell line expressing androgen receptor). A MMTV minimal promoter containing ARE was first cloned in front of a firefly luciferase reporter gene. Then the cascade was cloned into transfection vector pUV120puro. […] Puromycin resistant stable cell line was selected. Cell Culture Media and Reagents:
Plating medium: DMEM (phenol red free), 10% charcoal treated HyClone serum, 1% L-glutamine
Assay medium: DMEM (phenol red free), 1% charcoal treated HyClone serum, 1% L-glutamine, and 1% penicillin/streptomycin
• 1. Cells are maintained in culture medium, splitting cells when they reach 80-90% confluence • 2. To test compounds, 10,000 cells/well are plated to opaque 96 cell culture plate in 100 ul/well plating medium, culture for overnight at 37° C. in cell culture incubator • 3. […] Add 10 ul/well freshly prepared DHT (final concentration at 100 pM) to each well, incubate at 37° C. for 17 hr (overnight) • 5.
The results are reported as the mean of multiple tests as described below (the numbers of tests are indicated in the footnote). N.D. denotes that the compound was not tested.

Experiment [2] concerns the target T2, human androgen receptor (hAR) (Homo sapiens, UniProt P10275).
T2 construct: made in house; host or cells: baculovirus/Sf9 insect cells (crude extract)
T2 sequence (P10275 1-920): T1 sequence (P10275 1-920 Q868H) with H868Q
In words: Competitive binding analysis on baculovirus/Sf9 generated hAR extracts with 3H-DHT tracer. To be noted: hAR extract, 1 nM 3H-DHT, one hour at 4° C, mean of multiple tests. As for the experimental part:
The compounds of Formula I have affinity for the androgen receptor. […] The description below describes how the assay was carried out.
Competitive binding analysis was performed on baculovirus/Sf9 generated hAR extracts in the presence or absence of different concentrations of test agent and a fixed concentration of ^3H-dihydrotestosterone (^3H-DHT) as tracer. This binding assay method is a modification of a protocol previously described (Liao S., et. al. J. Steroid Biochem. 20:11-17 1984). Briefly, progressively decreasing concentrations of compounds are incubated in the presence of hAR extract (Chang et al. P.N.A.S. Vol. 89, pp. […], 1992), hydroxylapatite, and 1 nM^3H-DHT for one hour at 4° C. Subsequently, the binding reactions are washed three times to completely remove excess unbound ^3H-DHT. hAR bound ^3H-DHT levels are determined in the presence of compounds (=i.e competitive binding) and compared to levels bound when no competitor is present (=i.e. maximum binding). Compound binding affinity to the hAR is expressed as the concentration of compound at which one half of the maximum binding is inhibited. Table II below provides the results that were obtained for selected compounds (reported data is the mean of multiple tests as shown below)

[3] abbreviates: MDA-MB453-MMTV clone 54-19, inhibition of 100 pM DHT induction, 17 hr; mean of multiple tests; read-out: AR Cell IC50.

The term IC50 denotes the concentration at which inhibition is half-maximal. Consider `Cc1ccc(NC(=O)C(CC(C)C)Oc2ccc(C#N)c(C(F)(F)F)c2)cc1O` (stereo not shown) [Example 78, 2-(4-Cyano-3-trifluoromethyl-phenoxy)-4-methyl-pentanoic acid (3-hydroxy-4-methyl-phenyl)-amide], for which the IC50 was 948 nM in experiment [1] (setting [3]) and 121 nM in experiment [2] (read-out: AR Binding IC50).
As to `CC(C)CC(Oc1ccc(C#N)c(C(F)(F)F)c1)C(=O)NCc1ccc2nsnc2c1` (stereo not shown) [Example 26, 2-(4-Cyano-3-trifluoromethyl-phenoxy)-4-methyl-pentanoic acid (benzo[1,2,5]thiadiazol-5-yl-methyl)-amide], the IC50 in experiment [1] (setting [3]) is more than 1000 nM; in experiment [2] (read-out: AR Binding IC50), 67 nM.
The like results for `COc1ccccc1CNC(=O)C(CC(C)C)Oc1ccc(C#N)c(C(F)(F)F)c1` (stereo not shown) [Example 35, 2-(4-Cyano-3-trifluoromethyl-phenoxy)-4-methyl-pentanoic acid-2-methoxy-benzylamide] were, in that order, 768 nM and 77 nM.
The like results for `Cc1cccc(CCNC(=O)C(CC(C)C)Oc2ccc(C#N)c(C(F)(F)F)c2)c1` (stereo not shown) [Example 49, 2-(4-Cyano-3-trifluoromethyl-phenoxy)-4-methyl-pentanoic acid-(2-m-tolyl-ethyl)amide] were, in that order, more than 1000 nM and 75 nM.
The like results for `CCCC(Oc1ccc(C#N)c(Cl)c1)C(=O)NCCc1c[nH]c2ccccc12` (stereo not shown) [Example 101, 2-(3-Chloro-4-cyano-phenoxy)-pentanoic acid [2-(1H-indol-3-yl)-ethyl]-amide] were, in that order, 38 nM and 53 nM.
On to `CC(C)C[C@@H](Oc1ccc(C#N)c(C(F)(F)F)c1)C(=O)NCc1ccccc1` [Example 94, (R)-2-(4-Cyano-3-trifluoromethyl-phenoxy)-4-methyl-pentanoic acid benzylamide], for which the concentration for half-maximal inhibition (IC50) in experiment [1] (setting [3]) was 140 nM; in experiment [2] (AR Binding IC50 (nM)), 66 nM.
As to `CC(C)CC(Oc1ccc(C#N)c(C(F)(F)F)c1)C(=O)NCCCc1cccnc1` (stereo not shown) [Example 62, 2-(4-Cyano-3-trifluoromethyl-phenoxy)-4-methyl-pentanoic acid-(3-pyridin-3-ylpropyl)-amide], the figures for the IC50 in experiment [1] (setting [3]) and in experiment [2] (read-out: AR Binding IC50) were more than 1000 nM and 192 nM, respectively.
`CCC[C@H](Oc1ccc(C#N)c(Cl)c1)C(=O)NCc1ccccc1` [Example 104, (S)-2-(3-Chloro-4-cyano-phenoxy)-pentanoic acid benzylamide]: the IC50 in experiment [1] (read-out: AR Cell IC50; MDA-MB453-MMTV clone 54-19, inhibition of 100 pM DHT induction, 17 hr; mean of multiple tests) is 7 nM; in experiment [2] (read-out: AR Binding IC50) it was 241 nM.
`CCCC(Oc1ccc(C#N)c(C(F)(F)F)c1)C(=O)NCc1ccc2c(c1)OCO2` (stereo not shown) [Example 29, 2-(4-Cyano-3-trifluoromethyl-phenoxy)-pentanoic acid (benzo[1,3]dioxol-5-yl-methyl)-amide]: the 50% inhibitory concentration (IC50) is more than 1000 nM in experiment [1] (setting [3]) and 180 nM in experiment [2] (read-out: AR Binding IC50).
The like results for `CCC[C@H](Oc1ccc(C#N)c(C(F)(F)F)c1)C(=O)NCc1cccc(C)c1` [Example 107, (S)-2-(4-Cyano-3-trifluoromethyl-phenoxy)-pentanoic acid-3-methyl-benzylamide] were, in that order, less than 0.32 nM and 93 nM.
Take `COc1ccc(CCNC(=O)C(CC(C)C)Oc2ccc(C#N)c(C(F)(F)F)c2)cc1` (stereo not shown) [Example 9, 2-(4-Cyano-3-trifluoromethyl-phenoxy)-4-methyl-pentanoic acid [2-(4-methoxyphenyl)-ethyl]-amide]: the IC50 in experiment [1] (setting [3]) is more than 1000 nM; in experiment [2] (read-out: AR Binding IC50), 163 nM.
The like results for `CC(C)CCNC(=O)C(CC(C)C)Oc1ccc(C#N)c(C(F)(F)F)c1` (stereo not shown) [Example 22, 2-(4-Cyano-3-trifluoromethyl-phenoxy)-4-methyl-pentanoic acid (3-methyl-butyl)amide] were, in that order, more than 1000 nM and 178 nM.
The like results for `CC(C)CC(Oc1ccc(C#N)c(C(F)(F)F)c1)C(=O)NCCc1ccc(O)cc1` (stereo not shown) [Example 61, 2-(4-Cyano-3-trifluoromethyl-phenoxy)-4-methyl-pentanoic acid-[2-(4-hydroxyphenyl)-ethyl]-amide] were, in that order, 341 nM and 86 nM.
For `Cc1ccc(CCNC(=O)C(CC(C)C)Oc2ccc(C#N)c(C(F)(F)F)c2)cc1` (stereo not shown) [Example 47, 2-(4-Cyano-3-trifluoromethyl-phenoxy)-4-methyl-pentanoic acid-(2-p-tolyl-ethyl)amide], the values for the IC50 in experiment [1] (setting [3]) and in experiment [2] (read-out: AR Binding IC50) were more than 1000 nM and 144 nM, respectively.
The like results for `CC(C)CC(Oc1ccc(C#N)c(C(F)(F)F)c1)C(=O)NCc1ccco1` (stereo not shown) [Example 11, 2-(4-Cyano-3-trifluoromethyl-phenoxy)-4-methyl-pentanoic acid (furan-2-yl-methyl)-amide] were, in that order, more than 1000 nM and 172 nM.
The like results for `CC(C)C(Oc1ccc(C#N)c(C(F)(F)F)c1)C(=O)NCc1ccccc1` (stereo not shown) [Example 92, N-Benzyl-2-(4-Cyano-3-trifluoromethyl-phenoxy)-3-methyl-butyramide] were, in that order, 562 nM and 348 nM.
Take `Cc1cccc(CNC(=O)C(CC(C)C)Oc2ccc(C#N)c(C(F)(F)F)c2)c1` (stereo not shown) [Example 37, 2-(4-Cyano-3-trifluoromethyl-phenoxy)-4-methyl-pentanoic acid-3-methyl-benzylamide]: the results for the IC50 in experiment [1] (setting [3]) and in experiment [2] (read-out: AR Binding IC50) were more than 1000 nM and 41 nM, respectively.

For the origin of these results see US7507860B2 (Pfizer Inc., priority 2004, dated 2009).
